Where two headings read alike, the source gives them in different places.
Assays:
Assay in all cases: SelectScreen Kinase Profiling, single point inhibition and IC50 for off-target kinases
Assay type in all cases: biochemical
[1] = molecular target: T1, off-target kinases (Homo sapiens, UniProt O15146); settings: MUSK, ZLYTE, ATP Km app
T1 sequence (O15146 24-869): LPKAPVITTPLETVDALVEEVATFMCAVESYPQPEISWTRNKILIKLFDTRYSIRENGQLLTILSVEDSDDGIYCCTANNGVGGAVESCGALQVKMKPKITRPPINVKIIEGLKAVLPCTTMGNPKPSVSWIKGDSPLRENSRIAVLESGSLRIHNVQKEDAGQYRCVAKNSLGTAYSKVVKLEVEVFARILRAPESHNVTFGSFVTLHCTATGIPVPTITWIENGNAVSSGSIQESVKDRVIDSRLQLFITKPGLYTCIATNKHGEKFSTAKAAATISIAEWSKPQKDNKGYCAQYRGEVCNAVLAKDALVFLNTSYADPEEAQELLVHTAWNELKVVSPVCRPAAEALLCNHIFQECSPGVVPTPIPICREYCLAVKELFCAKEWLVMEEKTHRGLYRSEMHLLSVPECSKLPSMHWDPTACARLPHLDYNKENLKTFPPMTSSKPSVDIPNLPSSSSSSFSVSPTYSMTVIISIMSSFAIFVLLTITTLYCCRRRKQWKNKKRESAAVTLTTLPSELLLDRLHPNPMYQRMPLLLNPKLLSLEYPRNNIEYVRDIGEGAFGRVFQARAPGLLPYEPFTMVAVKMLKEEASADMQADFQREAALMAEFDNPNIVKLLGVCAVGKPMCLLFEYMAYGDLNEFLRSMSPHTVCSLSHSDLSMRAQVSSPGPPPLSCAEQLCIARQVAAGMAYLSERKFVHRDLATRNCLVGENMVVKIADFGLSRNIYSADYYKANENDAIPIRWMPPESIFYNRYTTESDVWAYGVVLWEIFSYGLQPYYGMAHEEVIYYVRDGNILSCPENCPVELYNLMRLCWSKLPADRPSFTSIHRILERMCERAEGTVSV

[2] = molecular target: off-target kinases (Homo sapiens, UniProt P31751); settings: AKT2 (PKB beta), ZLYTE, ATP Km app
off-target kinases (Homo sapiens, UniProt P31751), sequence (P31751 whole entry): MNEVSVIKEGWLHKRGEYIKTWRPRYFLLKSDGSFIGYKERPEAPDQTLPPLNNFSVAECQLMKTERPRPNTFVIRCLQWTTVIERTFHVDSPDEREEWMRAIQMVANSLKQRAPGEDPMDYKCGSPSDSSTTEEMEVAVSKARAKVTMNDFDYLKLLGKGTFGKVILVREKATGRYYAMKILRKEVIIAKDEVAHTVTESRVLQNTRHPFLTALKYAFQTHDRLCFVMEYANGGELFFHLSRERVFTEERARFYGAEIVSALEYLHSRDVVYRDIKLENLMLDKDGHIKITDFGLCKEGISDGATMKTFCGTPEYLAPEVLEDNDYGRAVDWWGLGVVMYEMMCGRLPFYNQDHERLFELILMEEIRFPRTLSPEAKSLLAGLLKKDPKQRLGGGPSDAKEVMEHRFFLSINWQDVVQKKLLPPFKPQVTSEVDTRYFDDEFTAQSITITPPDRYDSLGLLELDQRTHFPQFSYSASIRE

[3] = molecular target: T2, off-target kinases (Homo sapiens, UniProt P43403); settings: ZAP70, ZLYTE, ATP Km app
T2 sequence (P43403 1-619): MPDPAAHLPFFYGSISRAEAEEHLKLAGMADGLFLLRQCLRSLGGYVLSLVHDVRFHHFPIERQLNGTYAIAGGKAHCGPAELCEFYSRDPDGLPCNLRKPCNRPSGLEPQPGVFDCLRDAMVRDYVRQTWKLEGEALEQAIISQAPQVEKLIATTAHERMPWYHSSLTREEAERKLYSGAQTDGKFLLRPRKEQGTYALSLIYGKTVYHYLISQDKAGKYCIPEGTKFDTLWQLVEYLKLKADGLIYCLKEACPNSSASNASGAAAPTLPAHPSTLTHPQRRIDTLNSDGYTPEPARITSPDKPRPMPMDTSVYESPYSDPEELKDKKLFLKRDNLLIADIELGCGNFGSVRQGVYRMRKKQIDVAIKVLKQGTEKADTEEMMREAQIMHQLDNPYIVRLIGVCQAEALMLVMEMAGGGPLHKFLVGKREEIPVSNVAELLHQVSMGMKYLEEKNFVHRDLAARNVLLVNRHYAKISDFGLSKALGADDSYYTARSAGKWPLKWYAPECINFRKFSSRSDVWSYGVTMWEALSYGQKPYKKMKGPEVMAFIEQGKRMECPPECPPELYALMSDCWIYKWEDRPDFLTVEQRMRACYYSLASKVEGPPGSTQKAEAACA

[4] = molecular target: off-target kinases (Homo sapiens, UniProt P49841); settings: GSK3B (GSK3 beta), ZLYTE, ATP Km app
off-target kinases (Homo sapiens, UniProt P49841), sequence (P49841 whole entry): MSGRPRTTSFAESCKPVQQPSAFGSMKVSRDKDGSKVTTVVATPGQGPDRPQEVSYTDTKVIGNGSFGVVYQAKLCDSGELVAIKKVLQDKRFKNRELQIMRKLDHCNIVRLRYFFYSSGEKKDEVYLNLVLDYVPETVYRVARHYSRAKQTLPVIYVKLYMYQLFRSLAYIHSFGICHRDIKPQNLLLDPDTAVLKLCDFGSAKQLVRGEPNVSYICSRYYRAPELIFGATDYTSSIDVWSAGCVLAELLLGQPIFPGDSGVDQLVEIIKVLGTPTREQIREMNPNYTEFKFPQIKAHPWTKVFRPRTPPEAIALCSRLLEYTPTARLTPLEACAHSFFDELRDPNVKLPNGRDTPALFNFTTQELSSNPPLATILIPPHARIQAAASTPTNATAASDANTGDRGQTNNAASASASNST

[5] = molecular target: off-target kinases (Homo sapiens, UniProt Q00526); settings: CDK3/cyclin E1, LanthaScreen Binding
off-target kinases (Homo sapiens, UniProt Q00526), sequence (Q00526 whole entry): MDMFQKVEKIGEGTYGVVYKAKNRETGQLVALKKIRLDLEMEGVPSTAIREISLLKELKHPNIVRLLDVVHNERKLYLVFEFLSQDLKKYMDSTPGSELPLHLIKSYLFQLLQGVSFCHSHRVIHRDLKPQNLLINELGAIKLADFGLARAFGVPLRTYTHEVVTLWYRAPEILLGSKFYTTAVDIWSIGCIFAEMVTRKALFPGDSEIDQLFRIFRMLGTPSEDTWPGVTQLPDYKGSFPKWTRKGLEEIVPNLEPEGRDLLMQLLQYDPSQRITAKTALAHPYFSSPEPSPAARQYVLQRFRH

N#Cc1cc(-c2ncnc(Nc3ccc(N4CCN(C5COC5)CC4)cc3)n2)ccc1OC1CCOCC1 [Compound 1, 5-(4-((4-(4-(oxetan-3-yl)piperazin-1-yl)phenyl)amino)-1,3,5-triazin-2-yl)-2-((tetrahydro-2H-pyran-4-yl)oxy)benzonitrile]
inhibition ([1]; read-out: % Inhibition 1): 15%
inhibition ([1]; read-out: % Inhibition 2): 8%
inhibition ([1]; read-out: % Inhibition Avg): 12%
inhibition ([2]; read-out: % Inhibition 1): 3%
inhibition ([2]; read-out: % Inhibition 2): 2%
inhibition ([2]; read-out: % Inhibition Avg): 3%
inhibition ([3]; read-out: % Inhibition 1): 4%
inhibition ([3]; read-out: % Inhibition 2): 4%
inhibition ([3]; read-out: % Inhibition Avg): 4%
inhibition ([4]; read-out: % Inhibition 1): 21%
inhibition ([4]; read-out: % Inhibition 2): 21%
inhibition ([4]; read-out: % Inhibition Avg): 21%
inhibition ([5]; read-out: % Inhibition 1): 2%
inhibition ([5]; read-out: % Inhibition 2): 9%
inhibition ([5]; read-out: % Inhibition Avg): 6%
